≈ marks a conversion by molar mass, not a printed value. Where two headings read alike, the source gives them in different places.
Tests used:
[1] = target: T1, DPAGT1 (Human) (Homo sapiens, UniProt Q9H3H5); test: DPAGT1 assay; assay type: biochemical
T1 construct: made in house; host or cells: Expi293 cells (suspension)
T1 sequence (Q9H3H5 1-408): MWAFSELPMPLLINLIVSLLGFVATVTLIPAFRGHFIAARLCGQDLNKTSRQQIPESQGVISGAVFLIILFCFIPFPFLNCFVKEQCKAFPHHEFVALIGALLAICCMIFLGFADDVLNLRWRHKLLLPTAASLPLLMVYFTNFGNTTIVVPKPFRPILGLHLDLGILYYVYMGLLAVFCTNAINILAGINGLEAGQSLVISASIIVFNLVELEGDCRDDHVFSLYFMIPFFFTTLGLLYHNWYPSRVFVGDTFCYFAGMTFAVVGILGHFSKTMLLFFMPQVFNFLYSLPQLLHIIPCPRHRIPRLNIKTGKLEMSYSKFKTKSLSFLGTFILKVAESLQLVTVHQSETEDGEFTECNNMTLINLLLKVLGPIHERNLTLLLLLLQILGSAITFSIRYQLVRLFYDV
Procedure: DPAGT1 expression and purification. DPAGT1 was expressed in suspended Expi293 cells for 36 h. The cells were lysed by drawing through a 26 g needle (10 times) and membrane protein was extracted using buffer containing 1% decyl f3-D-maltopyranoside detergent. DPAGT1 was purified using HA-agarose resin and a superdex 200 size exclusion column.

[2] = target: WecA (E. coli) (Escherichia coli, UniProt P0AC78); test: WecA assay
Procedure: Preparation of membrane fraction P-60 containing WecA. E. coli B21 wecA strain were harvested by centrifugation (4,700 rpm) at 4° C. followed by washing with 0.9% saline solution (thrice). The washed cell pellets were washed with homogenization buffer (containing 50 mM K2HPO4, 5 mM MgCl2, 5 mM 1,4-dithio-DL-threitol, and 10% glycerol, pH=7.2) (thrice), and approximately 5 g of pellet (wet weight) was collected. The washed cell pellets were suspended in homogenization buffer and disrupted by probe sonication on ice (5 s on and 2 s off for 1 min, then cool down for 1.5 min., 5 cycles, cool down for 15 min, and then, 5 s on and 2 s off for 1 min., cool down for 1.5 min, 5 cycles). The resulting suspension was centrifuged at 4,700×g for 15 min. at 4° C. to remove unbroken cells. The lysate was centrifuged at 25,000×g for 20 min. at 4° C. The supernatant was subjected to ultracentrifugation at 60,000×g for 1 h at 4° C. The supernatant was discarded, and the membrane fraction containing WecA enzyme (P-60) was suspended in the Tris-HCl buffer (pH=7.5). Total protein concentrations were approximately 8 to 10 mg/mL. Aliquots were stored in Eppendorf tubes at −80° C.

[3] = target: T2, AglH (M. jannaschii) (Methanocaldococcus jannaschii, UniProt Q58513); test: AglH assay
T2 sequence (Q58513 1-301): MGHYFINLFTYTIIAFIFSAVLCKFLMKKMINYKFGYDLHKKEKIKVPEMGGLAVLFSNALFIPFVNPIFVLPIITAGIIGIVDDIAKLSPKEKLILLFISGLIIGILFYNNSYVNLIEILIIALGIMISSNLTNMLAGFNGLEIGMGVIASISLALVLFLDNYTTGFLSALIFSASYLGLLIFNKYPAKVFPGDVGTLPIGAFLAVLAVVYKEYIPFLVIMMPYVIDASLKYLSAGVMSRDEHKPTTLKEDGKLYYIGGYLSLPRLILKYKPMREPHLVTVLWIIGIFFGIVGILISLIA

[4] = target: MraY (Hydrogenivirga sp.) (Hydrogenivirga sp. 128-5-R1-1, UniProt Z9Y2G8N0L0); test: MraY assay; assay type: biochemical
Procedure: Expression and purification of HyMraY. The gene mraY of Hydrogenivirga spp. 128-5-R1-1 was cloned with a N-terminal His6 tag into a pET22b vector. […] The proteins were purified using a nickel, cation exchange, and size exclusion chromatography.
MraY assay. MraY assay substrates, Park's nucleotide-N^ε-C6-dansylthiourea, neryl phosphate, were chemically synthesized according to the reported procedures.^7 Park's nucleotide-N^ε-C6-dansylthiourea (2 mM stock solution, 1.88 jiL), MgCl2 (0.5 M, 5 jiL), KCl (2 M, 5 jiL), Triton X-100 (0.5%, 5.63 jiL), Tris buffer (pH 8.0, 50 mM), neryl phosphate (0.1 M, 2.25 jiL), and inhibitor molecule (0-50 .ig/mL in Tris buffer) were placed in a 1.5 mL Eppendorf tube. […] (26° C.) and quenched with CHCl3 (100 jiL). […] The aqueous phase was assayed via reverse-phase HPLC.

[5] = system: PD002; test: Checkerboard synergy (FIC index) with paclitaxel; assay type: cell-based
Procedure: The synergistic or antagonistic activities of CPPB were assessed in vitro via checkerboard technique.

[6] = system: PD002; test: Scratch (wound healing) assay; assay type: cell-based; settings: 0.2 μM, 24 h; untreated PD002 63%
Procedure: Scratch Assay. A confluent monolayer was formed in 24-well plates. The monolayer was scratched by a sterile 200 μL pipette tip and washed with PBS to remove cell debris. Complete medium with CPPB (5) (0, 0.05, 0.1, 0.2 μM) were added and scratched areas were photographed with microscope. The scratched cells were incubated at 37° C., 5% CO2. After 24 h, medium was removed and cells were stained with a 1:1 mixture of crystal violet and PBS for 5 min., washed with PBS twice, and photographed with microscope. Wound areas were measured and recovered areas were calculated.

[7] = system: WecA; settings: background, reported; cited from earlier work
[8] = read-out: IC50 AglH (M. jannaschii)

MraY (Hydrogenivirga sp.), sequence (Z9Y2G8N0L0 7-365 limits assumed): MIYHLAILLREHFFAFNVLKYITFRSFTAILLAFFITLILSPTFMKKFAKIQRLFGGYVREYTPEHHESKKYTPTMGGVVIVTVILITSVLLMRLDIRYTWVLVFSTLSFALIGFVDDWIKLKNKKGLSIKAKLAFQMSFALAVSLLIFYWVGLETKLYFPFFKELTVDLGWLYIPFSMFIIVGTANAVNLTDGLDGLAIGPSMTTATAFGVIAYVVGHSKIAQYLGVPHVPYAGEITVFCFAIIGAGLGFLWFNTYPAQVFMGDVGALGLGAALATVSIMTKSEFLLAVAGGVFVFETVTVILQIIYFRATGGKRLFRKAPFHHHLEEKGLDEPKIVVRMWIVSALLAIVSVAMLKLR
WecA (E. coli), sequence (P0AC78 whole entry): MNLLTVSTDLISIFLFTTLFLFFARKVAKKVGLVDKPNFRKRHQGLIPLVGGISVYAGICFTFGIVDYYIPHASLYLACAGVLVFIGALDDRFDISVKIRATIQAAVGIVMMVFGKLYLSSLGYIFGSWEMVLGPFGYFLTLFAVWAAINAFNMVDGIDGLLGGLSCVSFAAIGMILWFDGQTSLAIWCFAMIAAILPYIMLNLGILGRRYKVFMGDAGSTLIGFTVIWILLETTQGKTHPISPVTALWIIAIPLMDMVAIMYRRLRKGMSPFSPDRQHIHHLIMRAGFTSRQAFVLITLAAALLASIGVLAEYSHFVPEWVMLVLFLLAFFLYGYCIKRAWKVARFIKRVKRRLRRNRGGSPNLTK

`COC1C(O)[C@@H]([C@@H](O[C@H]2OC(C(=O)NCc3ccc(N4CCC(c5ccc(OC(F)(F)F)cc5)CC4)cc3)=C[C@H](O)[C@@H]2O)C(N)=O)O[C@H]1n1ccc(=O)[nH]c1=O` (stereo partly shown) [I-CPPB] showed an IC50 [1] of 0.6 µM, an IC50 [2] of 20 µM and an IC50 [3] of 15 µM.
For `NC(=O)[C@H](O[C@H]1OC(C(=O)N[C@H]2CCCCNC2=O)=C[C@H](O)[C@@H]1O)[C@H]1O[C@@H](n2ccc(=O)[nH]c2=O)C(O)C1O` (stereo partly drawn) [Dimethyl capuramycin, (2S,3S,4S)-2-((1R)-2-Amino-1-((2S,5R)-5-(2,4-dioxo-3,4-dihydropyrimidin-1(2H)-yl)-3,4-dihydroxy-tetrahydrofuran-2-yl)-2-oxoethoxy)-3,4-dihydroxy-N—((S)-2-oxoazepan-3-yl)-3,4-dihydro-2H-pyran-6-carboxamide], the IC50 [4] was > 50 µM, the IC50 [1] was > 50 µM and the IC50 [2] was 35 µM. The IC50 [3] was > 50 µM.
In the case of `CC(=O)O[C@H]1C(=O)[C@@]2(C)[C@H]([C@H](OC(=O)c3ccccc3)[C@]3(O)C[C@H](OC(=O)[C@H](O)[C@@H](NC(=O)c4ccccc4)c4ccccc4)C(C)=C1C3(C)C)[C@]1(OC(C)=O)CO[C@@H]1C[C@@H]2O` [Paclitaxel, reference compound], the IC50 ([5]; PD002, alone, read-out: IC50 of the single agent against PD002) is reported as 1.25 µM, the IC50 ([5]; PD002, read-out: IC50 CB (paclitaxel in combination), entry 1, with CPPB 0.10 μM) is reported as 0.63 µM and the IC50 ([5]; PD002, read-out: IC50 CB (paclitaxel in combination), entry 2, with CPPB 0.10 μM) is reported as 0.16 µM. The IC50 ([5]; PD002, read-out: IC50 CB (paclitaxel in combination), entry 3, with CPPB 0.20 μM) was 0.0049 µM, the IC50 ([5]; PD002, read-out: IC50 CB (paclitaxel in combination), entry 4, with CPPB 0.20 μM) was 0.02 µM and the IC50 ([5]; PD002, read-out: IC50 CB (paclitaxel in combination), entry 5, with CPPB 0.20 μM) was 0.031 µM. It also gave an IC50 ([5]; PD002, read-out: IC50 CB (paclitaxel in combination), entry 6, with CPPB 2.0 μM) of 0.02 µM, an IC50 ([5]; PD002, read-out: IC50 CB (paclitaxel in combination), entry 7, with CPPB 2.0 μM) of 0.039 µM and an IC50 ([5]; PD002, read-out: IC50 CB (paclitaxel in combination), entry 8, with CPPB 2.0 μM) of 0.31 µM. The IC50 ([5]; PD002, read-out: IC50 of paclitaxel against PD002 in combination with CPPB, with CPPB (0.1-2.0 μM)) was 0.024 to 0.61 µM and the “improvement of cytostatic activity of paclitaxel” value ([5]; in combination with CPPB (0.2-2.0 μM)) was “over 250 times”.
In the case of `NC(=O)[C@H](O[C@H]1OC(C(=O)NCc2ccc(N3CCC(c4ccc(OC(F)(F)F)cc4)CC3)cc2)=C[C@H](O)[C@@H]1O)[C@H]1O[C@@H](n2ccc(=O)[nH]c2=O)C(O)C1O` (stereo partly drawn) [DM-CPPB, (2S,3S,4S)-2-((1R)-2-Amino-1-((2S,5R)-5-(2,4-dioxo-3,4-dihydropyrimidin-1(2H)-yl)-3,4-dihydroxy-tetrahydrofuran-2-yl)-2-oxoethoxy)-3,4-dihydroxy-N-(4-(4-(4-(trifluoromethoxy)phenyl)-piperidin-1-yl)benzyl)-3,4-dihydro-2H-pyran-6-carboxamide], the IC50 [2] is reported as 30 µM and the IC50 [3] is reported as > 50 µM.
Work on `COC1C(O)C(C(OC2OC(C(=O)NC3CCCCNC3=O)=CC(O)C2O)C(N)=O)OC1n1ccc(=O)[nH]c1=O` [iso-Capuramycin, (2S,3S,4S)-2-((1R)-2-Amino-1-(2S,5R)-5-(2,4-dioxo-3,4-dihydropyrimidin-1(2H)-yl)-3-hydroxy-4-methoxytetrahydrofuran-2-yl)-2-oxoethoxy)-3,4-dihydroxy-N—((S)-2-oxoazepan-3-yl)-3,4-dihydro-2H-pyran-6-carboxamide] yielded an IC50 [1] of 11.5 µM, an IC50 [2] of 30 µM and an IC50 [3] of 20 µM.
With `COC1C(O)[C@H](n2ccc(=O)[nH]c2=O)O[C@@H]1[C@@H](O[C@H]1OC(CNCc2ccc(N3CCC(c4ccc(OC(F)(F)F)cc4)CC3)cc2)=C[C@H](O)[C@@H]1O)C(N)=O` (stereo partly drawn) [CPPA, (2R)-2-(((2S,3S,4S)-3,4-Dihydroxy-6-(((4-(4-(4-(trifluoromethoxy)phenyl)piperidin-1-yl)benzyl)-amino)-methyl)-3,4-dihydro-2H-pyran-2-yl)oxy)-2-((2S,5R)-5-(2,4-dioxo-3,4-dihydropyrimidin-1(2H)-yl)-4-hydroxy-3-methoxytetrahydrofuran-2-yl)acetamide] the IC50 [2] was > 50 µM and the IC50 [3] was > 50 µM.
Work on `Nc1ccn([C@@H]2O[C@H](CO)[C@@H](O)C2(F)F)c(=O)n1` [Gemcitabine] yielded a wound-healing rate [6] of 43%.
In the case of “(2R)-2-(((2S,3S,4S)-3,4-dihydroxy-6-(((4-(4-(4-(trifluoromethoxy)phenyl)pipendin-1-yl)-benzyl)amino)methyl)-3,4-dihydro-2H-pyran-2-yl)oxy)-2-((2S,5R)-5-(2,4-dioxo-3,4-dihydro-pyrimidin-1(2H)-yl)-3-hydroxy-4-methoxytetrahydrofuran-2-yl)acetamide [I-CPPA]”, the IC50 [4] is reported as > 50 µM, the “MraY inhibition at 50 μM” value ([4]; 50 μM concentration) is reported as “did not inhibit” and the IC50 [1] is reported as > 50 µM. For the same compound, the “DPAGT1 inhibition at 50 μM” value ([1]; 50 μM concentration) was “did not inhibit”, the “WecA inhibition at 50 μM” value ([2]; 50 μM concentration) was “did not inhibit” and the IC50 ([2]; read-out: IC50 WecA (E. coli)) was > 50 µM. For the same compound, the “AglH inhibition at 50 μM” value ([3]; 50 μM concentration) was “did not inhibit” and the IC50 [3, 8] was > 50 µM.
For `CCCCc1ccc(NC(=O)C2=CCN(C)[C@@H]([C@H](O[C@@H]3O[C@H](CN)[C@@H](O)[C@H]3O)[C@H]3O[C@@H](n4ccc(=O)[nH]c4=O)[C@H](O)[C@@H]3O)C(=O)N2C)cc1` [CPZEN-45], the “IC50 WecA” value [7] is listed as ~0.058 µg/mL (≈ 0.0842 µM).
For “(2S,3S,4S)-2-((1R)-2-Amino-1-(2S,5R)-5-(2,4-dioxo-3,4-dihydropyrimidin-1(2H)-yl)-3,4-dimethoxy-tetrahydrofuran-2-yl)-2-oxoethoxy)-3,4-dihydroxy-N-(4-(4-(4-(trifluoromethoxy)-phenyl)piperidin-1-yl)benzyl)-3,4-dihydro-2H-pyran-6-carboxamide [OM-CPPB]”, the IC50 [4] was 5 µM, the “DPAGT1 inhibitory activity (in words)” value [1] was “very low- or no-DPAGT1 inhibitor” and the IC50 [1] was 20 µM. The IC50 ([2]; read-out: IC50 WecA (E. coli)) was 10 µM and the IC50 [3, 8] was 30 µM.

Source: patent US12570684B2 (UNIVERSITY OF TENNESSEE RESEARCH FOUNDATION, priority 2020, dated 2026)
